Test results published in PubChem BioAssay AID248 (DTP/NCI, 2004).
Several values for one entry are separate records, joined by “and”; a condition that tells them apart may be missing. Equal entries are not always repeated. Inconclusive results and toxic doses are left out. Rule as the data show it: active = T/C of 150% or more; inactive = T/C below 125%.

Tested on: L1210 leukemia ip in BDF1 mice, survival T/C
Assay: NCI In Vivo Anticancer Drug Screen. Data for tumor model L1210 Leukemia (intraperitoneal) in B6D2F1 (BDF1) mice
Conditions: endpoint: mean survival time, higher = longer survival
Method in brief: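 Read-out is survival time, reported as the treated-group measurement over the vehicle-control measurement.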

[1] = dose: 50.0 mg/kg/injection, schedule: Q01DX001 (ip), vehicle: carboxymethylcellulose (CMC)
[2] = dose: 100.0 mg/kg/injection, schedule: Q01DX001 (ip), vehicle: carboxymethylcellulose (CMC)
[3] = dose: 200.0 mg/kg/injection, schedule: Q01DX001 (ip), vehicle: carboxymethylcellulose (CMC)
[4] = dose: 400.0 mg/kg/injection, schedule: Q01DX001 (ip), vehicle: carboxymethylcellulose (CMC)
[5] = dose: 100.0 mg/kg/injection, schedule: Q01DX001 (ip), vehicle: saline
[6] = dose: 100.0 mg/kg/injection, schedule: Q04DX003 (ip), vehicle: Klucel (hydroxypropylcellulose) (HPC)
[7] = dose: 200.0 mg/kg/injection, schedule: Q01DX001 (ip), vehicle: saline
[8] = dose: 200.0 mg/kg/injection, schedule: Q04DX003 (ip), vehicle: Klucel (hydroxypropylcellulose) (HPC)
[9] = dose: 400.0 mg/kg/injection, schedule: Q01DX001 (ip), vehicle: saline
[10] = dose: 100.0 mg/kg/injection, schedule: Q01DX001 (ip), vehicle: Klucel (hydroxypropylcellulose) (HPC)
[11] = dose: 200.0 mg/kg/injection, schedule: Q01DX001 (ip), vehicle: Klucel (hydroxypropylcellulose) (HPC)
[12] = dose: 400.0 mg/kg/injection, schedule: Q01DX001 (ip), vehicle: Klucel (hydroxypropylcellulose) (HPC)
[13] = dose: 100.0 mg/kg/injection, schedule: Q04DX002 (ip), vehicle: Klucel (hydroxypropylcellulose) (HPC)
[14] = dose: 200.0 mg/kg/injection, schedule: Q04DX002 (ip), vehicle: Klucel (hydroxypropylcellulose) (HPC)
[15] = dose: 400.0 mg/kg/injection, schedule: Q04DX002 (ip), vehicle: Klucel (hydroxypropylcellulose) (HPC)
[16] = dose: 100.0 mg/kg/injection, schedule: Q04DX003 (ip), vehicle: saline
[17] = dose: 200.0 mg/kg/injection, schedule: Q04DX003 (ip), vehicle: saline
[18] = dose: 400.0 mg/kg/injection, schedule: Q04DX003 (ip), vehicle: saline
[19] = dose: 100.0 mg/kg/injection, schedule: Q01DX009 (ip), vehicle: Klucel (hydroxypropylcellulose) (HPC)
[20] = dose: 150.0 mg/kg/injection, schedule: Q01DX001 (ip), vehicle: other
[21] = dose: 50.0 mg/kg/injection, schedule: Q04DX002 (ip), vehicle: Klucel (hydroxypropylcellulose) (HPC)
[22] = dose: 100.0 mg/kg/injection, schedule: Q04DX003 (ip), vehicle: saline with Tween-80
[23] = dose: 200.0 mg/kg/injection, schedule: Q04DX003 (ip), vehicle: saline with Tween-80
[24] = dose: 100.0 mg/kg/injection, schedule: Q01DX009 (ip), vehicle: saline
[25] = dose: 200.0 mg/kg/injection, schedule: Q01DX009 (ip), vehicle: saline
[26] = dose: 400.0 mg/kg/injection, schedule: Q01DX009 (ip), vehicle: saline

Measured: T/C

O=C(c1ccccc1)N(c1ccccc1)c1ccccc1
inactive: [1] 107 % of control | [2] 101 % of control | [3] 107 % of control | [4] 103 % of control

O=C(Nc1ccccc1)Nc1nccs1
inactive: [5] 102 % of control | [6] 105 % of control | [7] 106 % of control | [8] 100 % of control | [9] 101 % of control

CC1(C)CC[N+]1(C)Cc1ccccc1 (configuration not stated)
inactive: dose: 6.25 mg/kg/injection, schedule: Q01DX009 (ip), vehicle: saline 95 % of control | dose: 6.25 mg/kg/injection, schedule: Q04DX003 (ip), vehicle: saline 90 % of control | dose: 12.0 mg/kg/injection, schedule: Q01DX001 (ip), vehicle: saline 102 % of control | dose: 12.5 mg/kg/injection, schedule: Q01DX009 (ip), vehicle: saline 109 % of control | dose: 12.5 mg/kg/injection, schedule: Q04DX003 (ip), vehicle: saline 101 % of control | dose: 25.0 mg/kg/injection, schedule: Q01DX001 (ip), vehicle: saline 97 % of control | dose: 25.0 mg/kg/injection, schedule: Q01DX009 (ip), vehicle: saline 97 % of control | dose: 25.0 mg/kg/injection, schedule: Q04DX003 (ip), vehicle: saline 91 % of control

CCCCN(C(C)=O)c1ccccc1
inactive: [10] 97 % of control | [11] 91 % of control | [12] 94 % of control

Nc1ncc(N=O)c(=O)[nH]1
inactive: [13] 96 % of control | [14] 99 % of control | [15] 96 % of control and 101 % of control

COc1ccc(C(C)=O)c(OC)c1C
inactive: [16] 95 % of control | [17] 90 % of control | [18] 98 % of control

Cc1cc(OC(=O)Nc2cccc([N+](=O)[O-])c2)cc(C)c1Cl
inactive: [19] 100 % of control | dose: 200.0 mg/kg/injection, schedule: Q01DX009 (ip), vehicle: Klucel (hydroxypropylcellulose) (HPC) 90 % of control | dose: 400.0 mg/kg/injection, schedule: Q01DX009 (ip), vehicle: Klucel (hydroxypropylcellulose) (HPC) 93 % of control

N/C(=C\C(=O)c1ccccc1)C(=O)c1ccccc1
inactive: [6] 103 % of control | [8] 108 % of control

CCC(C#N)C1C=CCCC1 (configuration not stated)
inactive: dose: 75.0 mg/kg/injection, schedule: Q01DX001 (ip), vehicle: other 107 % of control | [20] 107 % of control

COC12C(CC3C4CC=C5CC(OC(C)=O)CCC5(C)C4CCC31C)C(c1ccccc1)=NN2c1ccccc1 (configuration not stated)
inactive: dose: 12.5 mg/kg/injection, schedule: Q04DX002 (ip), vehicle: Klucel (hydroxypropylcellulose) (HPC) 101 % of control | dose: 25.0 mg/kg/injection, schedule: Q04DX002 (ip), vehicle: Klucel (hydroxypropylcellulose) (HPC) 104 % of control | [21] 101 % of control

CCCCCCCCCCCCCCCc1cc(=O)n(C)n1C
inactive: [22] 93 % of control | [23] 94 % of control

CC1=N/C(=C/c2ccc([N+](=O)[O-])s2)C(=O)O1
inactive: [21] 112 % of control | [13] 97 % of control | [14] 95 % of control and 115 % of control | [15] 98 % of control

CCCCOC(=O)c1ccc(NC(=O)Nc2ccccc2)cc1
inactive: dose: 25.0 mg/kg/injection, schedule: Q04DX003 (ip), vehicle: saline with Tween-80 101 % of control | dose: 50.0 mg/kg/injection, schedule: Q04DX003 (ip), vehicle: saline with Tween-80 93 % of control | [22] 93 % of control and 97 % of control

CC1C(=O)OC2CC[N+]3(C)CC=C(COC(=O)C(C)(O)C1(C)O)C23 (configuration not stated)
inactive: dose: 50.0 mg/kg/injection, schedule: Q01DX009 (ip), vehicle: saline 92 % of control | [24] 100 % of control | [25] 92 % of control

COC(=O)NC1CCC(NC(=O)OC)CC1 (configuration not stated)
inactive: [10] 96 % of control | [11] 93 % of control | [12] 91 % of control

O=c1oc(-c2ccccc2)n[n+]([O-])c1-c1ccccc1
inactive: dose: 50.0 mg/kg/injection, schedule: Q01DX009 (ip), vehicle: Klucel (hydroxypropylcellulose) (HPC) 98 % of control | [19] 98 % of control

O=C(Nc1nccs1)Nc1cc([N+](=O)[O-])ccc1F
inactive: [6] 88 % of control | [8] 91 % of control | dose: 400.0 mg/kg/injection, schedule: Q04DX003 (ip), vehicle: Klucel (hydroxypropylcellulose) (HPC) 88 % of control

CCOc1ccc(NC(=O)NCBr)cc1
inactive: dose: 12.5 mg/kg/injection, schedule: Q01DX009 (ip), vehicle: saline with Tween-80 106 % of control | dose: 25.0 mg/kg/injection, schedule: Q01DX009 (ip), vehicle: saline with Tween-80 95 % of control | dose: 50.0 mg/kg/injection, schedule: Q01DX009 (ip), vehicle: saline with Tween-80 87 % of control | dose: 100.0 mg/kg/injection, schedule: Q01DX009 (ip), vehicle: saline with Tween-80 87 % of control

O=[N+]([O-])c1ccc(CSCc2ccccc2)cc1
inactive: [1] 102 % of control | [2] 102 % of control | [3] 109 % of control | [4] 98 % of control

Cn1nc(Br)c(=O)n(C(c2ccccc2)c2ccccc2)c1=O
inactive: dose: 22.0 mg/kg/injection, schedule: Q01DX015 (ip), vehicle: other 110 % of control | dose: 33.0 mg/kg/injection, schedule: Q01DX015 (ip), vehicle: other 103 % of control | dose: 44.0 mg/kg/injection, schedule: Q01DX001 (ip), vehicle: other 100 % of control | dose: 50.0 mg/kg/injection, schedule: Q01DX015 (ip), vehicle: other 103 % of control | dose: 66.0 mg/kg/injection, schedule: Q01DX001 (ip), vehicle: other 102 % of control and 108 % of control | dose: 75.0 mg/kg/injection, schedule: Q01DX015 (ip), vehicle: other 106 % of control | [20] 100 % of control and 104 % of control
active: dose: 200.0 mg/kg/injection, schedule: Q01DX001 (ip), vehicle: other 154 % of control | dose: 400.0 mg/kg/injection, schedule: Q01DX001 (ip), vehicle: other 154 % of control

CCO/N=C(/N)N=C(N)N
inactive: [5] 92 % of control | [24] 106 % of control | [16] 95 % of control | [7] 97 % of control | [25] 107 % of control | [17] 91 % of control | [9] 92 % of control | [26] 97 % of control | [18] 91 % of control

Cc1ccccc1C1SCCCS1
inactive: [22] 101 % of control | [23] 96 % of control | dose: 400.0 mg/kg/injection, schedule: Q04DX003 (ip), vehicle: saline with Tween-80 107 % of control

CC12CCC(O1)C1C[N+](C)(CCC#N)CC12 (configuration not stated)
inactive: dose: 55.0 mg/kg/injection, schedule: Q01DX Z (ip), vehicle: saline 105 % of control | dose: 83.0 mg/kg/injection, schedule: Q01DX Z (ip), vehicle: saline 100 % of control | dose: 125.0 mg/kg/injection, schedule: Q01DX Z (ip), vehicle: saline 105 % of control

CCOC(=O)c1c(N)cc(=O)[nH]c1O
inactive: dose: 75.0 mg/kg/injection, schedule: Q01DX001 (ip), vehicle: saline 101 % of control | dose: 150.0 mg/kg/injection, schedule: Q01DX001 (ip), vehicle: saline 98 % of control | dose: 300.0 mg/kg/injection, schedule: Q01DX001 (ip), vehicle: saline 95 % of control

O=C(O)CN1C(=O)C2CC=CCC2C1=O (configuration not stated)
inactive: [24] 91 % of control | [16] 96 % of control | [25] 96 % of control | [17] 93 % of control | [26] 86 % of control | [18] 91 % of control
